# According to publication PMC314469, “Protein Interaction Networks by Proteome Peptide Scanning” (PLoS Biology, 2004):
# Tested on: Myo5 SH3 domain
# Experiment: SPOT analysis of cellulose-bound peptides (WISE), Myo5 SH3 domain (Dataset S4)
# Type: binding, Saccharomyces cerevisiae
# Settings: SPOT analysis of cellulose-bound 14-mer yeast proteome peptides, Myo5 SH3 domain; normalized value; mean where the peptide was synthesized more than once
row,Sequence,The normalized value in BLU units
1,LPQQHLSPLIPIAI,45.3 BLU
2,RLNSFAPPPNPYAT,273.6 BLU
3,IFQSLLHPELPIII,239.9 BLU
4,LTSVKIVPQRPISD,89.0 BLU
5,GLVLRSTPVIPDMK,209.2 BLU
6,GFVFFIAPHLPVDL,507.5 BLU
7,DFNKFERPNIPVEE,212.3 BLU
8,YWKLFFQPEYPVRM,144.2 BLU
9,QLRSLFKPFGPILN,369.9 BLU
10,SAENLIQPTAPIRD,56.4 BLU
11,REDAHEDPVSPKAG,144.8 BLU
12,TLRSMIPPFTPQLD,412.7 BLU
13,LVPSKAIPPLPQLD,558.2 BLU
14,SKRMKALPKGPAAL,821.6 BLU
15,HLVVWNPPILPQHE,117.9 BLU
16,PLPTFSAPSLPQQS,46960.5 BLU

row,Sequence,The normalized value in BLU units
1,AEFDLTDPEVPSFY,165.8 BLU
2,DTYARNNPDFPPQN,138.5 BLU
3,DEFTLDLPRIPSLE,180.8 BLU
4,GLIAHQGPQFPVMG,238.5 BLU
5,FLSYMSEPKYPSNE,141.6 BLU
6,MTVPRNRPMAPFGT,595.6 BLU
7,YLTEFSRPIPPTPS,168.8 BLU
8,VPIIFEIPFNPIYK,214.9 BLU
9,YENCHSLPLDPQSP,121.9 BLU
10,KLAILTCPFEPPKP,173.2 BLU
11,KFVIHNEPIDPSDK,46.7 BLU
12,KPSLWEAPQNPPYS,152.4 BLU
13,TYGFRVRPDFPVFG,357.0 BLU
14,FFQLMQSPSLPLLM,829.6 BLU
15,NEAPMLSPQRPYST,111.3 BLU

# Same assay, conditions: SPOT analysis of cellulose-bound peptides probed with Myo5 SH3 domain; normalized value
row,Sequence,"The normalized value in BLU units (SPOT analysis, Myo5 SH3)"
1,HLTDLSPPGTPPTM,260.8 BLU
2,SFDYLFHPFVPCTI,23.1 BLU
3,YFKNMSNPKIPATK,127.8 BLU
4,ALDYLIPPPMPKNQ,130.6 BLU
5,IERVWNGPVEPSDE,180.2 BLU
6,ELLCFLSPGKPSKG,57.4 BLU
7,HAVLLNPPVAPTAE,227.5 BLU
8,SPRCLPTPILPSMS,192.8 BLU
9,SFTRMPLPTPPIEG,287.1 BLU
10,VARPLSVPGSPRDL,186.0 BLU
11,VEPEWYLPILPMIL,235.7 BLU
12,MAKSFADPRVPQPM,172.2 BLU
13,ILCAYNSPKVPADI,81.4 BLU
14,FWKIHLSPPLPSFK,965.5 BLU
15,AAPKHAPPPVPNET,110580.8 BLU
16,ALNNWILPSTPHIQ,169.3 BLU
17,MLFSWPYPEAPIEG,126.4 BLU
18,SENYLVKPTIPGTT,61.5 BLU
19,YLNNLAEPLIPLSL,222.0 BLU
20,KPPSYPSPAQPPKS,11899.6 BLU

row,Sequence,"The normalized value in BLU units (SPOT analysis, Myo5 SH3)"
1,ELRKLVQPITPIIK,170.0 BLU
2,NAIEMALPNDPYPA,87.2 BLU
3,WLSKLVLPPPPVSI,4130.6 BLU
4,PPEGFPEPLNPTNF,86.0 BLU
5,AFHELGIPVIPNPS,193.0 BLU
6,PPPPMGQPKDPKFE,248.1 BLU
7,KESKFGTPEKPLSD,249.8 BLU
8,WLLPYSLPMHPGRW,706.0 BLU
9,TEGKYAPPSQPSMA,222.8 BLU
10,IEPDFIEPDAPLAA,61.4 BLU
11,YLPHMSRPLGPDEV,172.0 BLU
12,FFPIMSLPVTPVKS,122.3 BLU
13,VLKTLAFPINPSDI,156.0 BLU
14,LFKRLPVPAPPMDS,145.1 BLU
15,KEFRFIFPLQPLFI,749.7 BLU
16,ILHQLGAPSIPENL,174.0 BLU
17,VFSLMNCPAYPDVQ,153.4 BLU
18,AEVYYGPPTDPRKQ,83.5 BLU
19,PLAPLPPPPPPSVA,4747.6 BLU

# Same assay, conditions: SPOT analysis of membrane-bound peptides, Myo5 SH3 domain; normalized value (see methods)
row,Sequence,The normalized value in BLU units
1,VEKRKFTPIEPSLL,171.2 BLU
2,GSQWKNHPDWPFWV,108.4 BLU
3,TTTYKSRPDRPKPV,309.3 BLU
4,KDFSKNAPYNPSEV,142.6 BLU
5,KEFFRLTPNQPVGL,43.8 BLU
6,KLYYRHRPQKPVRT,915.7 BLU
7,EHLQKERPKPPNKG,363.6 BLU
8,KLPKKFPPPTPLLE,19656.3 BLU
9,KDKARGNPEKPPYW,59.9 BLU
10,LPEPRFYPLSPKNN,289.3 BLU
11,ILAVKKNPQSPMYT,175.4 BLU
12,AALVKFVPSKPMCV,280.9 BLU
13,KVQIKKVPTDPSSS,191.2 BLU
14,NESEKSSPWSPYKV,221.5 BLU
15,ILEGKFEPVIPREW,93.2 BLU
16,AVVYKLKPYIPSLS,112.0 BLU
17,ATEAKCLPKIPSIP,136.7 BLU

row,Sequence,The normalized value in BLU units
1,TNGPRYSPQNPRPF,158.5 BLU
2,YDLTRFLPNHPGGQ,80.6 BLU
3,EDLVKKPPFIPSPT,755.9 BLU
4,HEVPKRSPEKPSNP,171.6 BLU
5,GQQKRFSPSLPSAV,728.5 BLU
6,AKLHRTKPVKPLSK,501.8 BLU
7,EKYGKDQPESPVPE,143.3 BLU
8,FIKNKAKPLIPIEL,656.3 BLU
9,SETARKVPPIPTQI,420.1 BLU
10,MDGIKELPEFPIKK,138.4 BLU
11,KQLMKNLPKIPLLN,580.1 BLU
12,DLSLRYAPNLPRVI,249.6 BLU
13,VRSKRLFPVRPMAT,503.5 BLU
14,NELVKRFPGHPPLR,300.5 BLU
15,IDIPRTNPHIPLYQ,139.2 BLU
16,VKRPRLNPFLPRDE,1186.3 BLU
17,EFTTREGPHQPIGN,79.8 BLU

# Same assay, conditions: SPOT analysis of membrane-synthesized peptides probed with Myo5 SH3 domain; normalized value
row,Sequence,"The normalized value in BLU units (SPOT analysis, Myo5 SH3)"
1,SLGERFMPMAPEVY,139.8 BLU
2,PSAMKLVPSIPPAT,561.3 BLU
3,EELARVTPLTPKEY,181.5 BLU
4,YKNRKNLPTIPIRL,960.6 BLU
5,WLGNKYDPENPFND,88.8 BLU
6,SLTLKTLPRVPTDS,211.7 BLU
7,VYRRKCIPFAPHQI,382.9 BLU
8,DENSKWQPSDPFTM,285.2 BLU
9,LKHTKNKPKNPDTA,406.0 BLU
10,RLIKRLKPPAPKEP,403.1 BLU
11,PPNYKQQPNCPSSN,147.5 BLU
12,DQLNRLLPNLPEEE,47.5 BLU
13,VLKIKPLPYKPRGR,646.7 BLU
14,QATGRRGPAPPPPP,607.2 BLU
15,IQQNKQGPKIPFYL,86.9 BLU
16,LQNAKNDPLPPVIE,58.8 BLU
17,QRLDRDKPHEPNGY,217.9 BLU
18,DNELKDEPEPPNLI,179.2 BLU
19,YVYGRQDPKKPFFT,345.2 BLU

row,Sequence,"The normalized value in BLU units (SPOT analysis, Myo5 SH3)"
1,STDHRGTPANPGRV,257.1 BLU
2,SFVTKYLPAAPVGS,214.9 BLU
3,GEMVKLTPKNPFYK,408.3 BLU
4,SNFKKRDPGLPDFQ,160.6 BLU
5,GSYIKRTPKIPEKD,206.2 BLU
6,VTDIKLTPTDPLVG,851.7 BLU
7,KHEPKKSPTTPALA,726.2 BLU
8,CWHPKTIPKQPMEI,342.9 BLU
9,EFIVKTIPVPPRDF,115.3 BLU
10,NIFQKQLPKMPKEY,276.2 BLU
11,RGWQRFLPTGPIAH,802.1 BLU
12,KTRNKPKPLWPQVK,261.8 BLU
13,TVRTRRRPPPPPIP,46234.4 BLU
14,GDHPKGPPPPPPPP,20184.2 BLU
15,HFPSRSQPSDPKLQ,257.5 BLU
16,LTKIRRRPQQPLTD,393.3 BLU
17,LAGIRLVPVLPILL,152.2 BLU
18,AISKKLGPDTPIKV,176.5 BLU
